Results taken from patent publication US20130324555A1, “Method of use of pharmaceutical formulations for the treatment of apicomplexan diseases in animals” (priority 2012, published 2013).

Tests used:
[1] = Hydrolytic stability of acylated derivatives (data not shown); format: physicochemical
Description: A cursory study of the effect of capping the phenol of 4 via acylation was undertaken. The acylated derivatives 7 were prepared and tested. […] The intrinsic activity of intact 7a cannot yet be ruled out, and this interesting phenomenon is currently under study.

[2] = test system: T. gondii Me-49 oocysts; assay: Mouse model of T. gondii oocyst infection, Me-49; format: in vivo, mice
Description: (§1) Compounds 14a and 14b were tested for efficacy against T. gondii in the oocyst stage following per oral challenge in mice. Mice were infected by oral gavage with ME49 or TgGoatUS4 oocysts. Mice were treated with either 100 mg/kg or 25 mg/kg) of test substance.
(§2) Thus, compounds 14a and 14b were tested for efficacy in a mouse model of T. gondii oocyst infection. The oocyst form of the parasite is excreted by cats and is often the form by which people and other animals become infected. This oocyst infection in mice is very virulent, and fatal. Mice were infected by oral gavage with ME49 or TgGoatUS4 oocysts. Mice were treated with either a high dose (100 mg/kg) or low dose (25 mg/kg) of 14a or 14b 1 mL suspension via oral gavage, or were not treated. […] Treatment with 14a and 14b increased survival by 1 day (Table 6, FIGS. 8 and 9).
(§3) HLA B07 transgenic mice were produced at Pharmexa-Epimmune (San Diego, Calif., USA) and bred at the University of Chicago. […]
(§4) Oocysts were obtained by feeding infected tissues of Swiss Webster mice to cats, sporulated in 2% sulfuric acid on a shaker for one week, and stored at 4° C. until used (Dubey 2010). Oocysts were counted in a disposable hemocytometer and diluted 10-fold from 10^−1 to 10^−7 to reach an end point of ≅1 oocyst. […]

[3] = test system: T. gondii TgGoatUS4 oocysts; assay: Mouse model of T. gondii oocyst infection, TgGoatUS4; format: in vivo, mice
Description: as §1, §2, §3, §4

Compound: O=C(Oc1ccc(Cl)cc1C(=O)Nc1ccc([N+](=O)[O-])cc1Cl)c1ccccc1 [Compound 7a, 4-chloro-2-((2-chloro-4-nitrophenyl)carbamoyl)phenyl benzoate]
- stability against hydrolysis [1]: hydrolytically labile under certain conditions

Compound: CN(CC(=O)NN)C(=O)Oc1ccc(Cl)cc1C(=O)Nc1ccc([N+](=O)[O-])cc1Cl.Cl [Compound 14a, 4-chloro-2-((2-chloro-4-nitrophenyl)carbamoyl)phenyl (2-hydrazinyl-2-oxoethyl)(methyl)carbamate hydrochloride]
- increase of survival ([2]; Me-49 oocysts, 100 or 25 mg/kg): 1 days
- survival of mice infected with T. gondii oocysts, in words ([2]; mouse, in vivo): effective at prolonging slightly the survival

Compound: CN(CC(=O)NN)C(=O)Oc1ccc(Cl)cc1C(=O)Nc1ccc(C(F)(F)F)cc1C(F)(F)F.Cl [Compound 14b, 2-((2,4-bis(trifluoromethyl)phenyl)carbamoyl)-4-chlorophenyl (2-hydrazinyl-2-oxoethyl)(methyl)carbamate hydrochloride]
- increase of survival ([3]; TgGoatUS4 oocysts, 100 or 25 mg/kg): 1 days
- survival of mice infected with T. gondii oocysts, in words ([3]; mouse, in vivo): effective at prolonging slightly the survival
